In brackets after ≈: the same amount, converted by molar mass.
Columns and labels:
Candida albicans = test: Antifungal activity against Candida albicans ATCC 44859 after 24 hrs by broth microdilution method; type: functional; settings: ATCC 44859, 24 h
Candida tropicalis = test: Antifungal activity against Candida tropicalis 156 after 24 hrs by broth microdilution method; type: functional; settings: Candida tropicalis, 156, 24 h
Pichia kudriavzevii = test: Antifungal activity against Candida krusei E28 after 24 hrs by broth microdilution method; type: functional; settings: E28, 24 h
Trichosporon asahii = test: Antifungal activity against Trichosporon asahii 1188 after 24 hrs by broth microdilution method; type: functional; settings: Trichosporon asahii, 1188, 24 h
Aspergillus fumigatus = test: Antifungal activity against Aspergillus fumigatus 231 after 24 hrs by broth microdilution method; type: functional, organism-based; settings: Aspergillus fumigatus, 231, 24 h
Lichtheimia corymbifera = test: Antifungal activity against Absidia corymbifera 272 after 24 hrs by broth microdilution method; type: functional, organism-based; settings: Lichtheimia corymbifera, 272, 24 h
[1] = tested on: Trichophyton mentagrophytes; test: Antifungal activity against Trichophyton mentagrophytes 445 after 72 hrs by broth microdilution method; type: functional, organism-based; settings: Trichophyton mentagrophytes, 445, 72 h
[2] = Cytotoxicity against human HeLa cells assessed as cell viability at 30 uM after 48 hrs by MTT assay; type: cell-based; settings: read-out: Activity
[3] = Cytotoxicity against human HuH7 cells assessed as cell viability at 30 uM after 48 hrs by MTT assay; type: cell-based, Huh-7; settings: read-out: Activity
[4] = Cytotoxicity against human HepG2 cells assessed as cell viability at 30 uM after 48 hrs by MTT assay; type: cell-based; settings: read-out: Activity
[5] = Cytotoxicity against MDCK2 cells assessed as cell viability at 30 uM after 48 hrs by MTT assay; type: cell-based, Canis lupus familiaris, MDCK-II; settings: dog, read-out: Activity
HeLa = test: Cytotoxicity against human HeLa cells assessed as reduction in cell viability after 48 hrs by MTT assay; type: cell-based
[6] = Cytotoxicity against human HuH7 cells assessed as reduction in cell viability after 48 hrs by MTT assay; type: cell-based; settings: Huh-7, 48 h
[7] = Cytotoxicity against MDCK2 cells assessed as reduction in cell viability after 48 hrs by MTT assay; type: cell-based; settings: Canis lupus familiaris, MDCK-II
HepG2 = test: Cytotoxicity against human HepG2 cells assessed as reduction in cell viability after 48 hrs by MTT assay; type: cell-based; settings: HepG2, 48 h
[8] = tested on: Mycobacterium tuberculosis; test: Antimycobacterial activity against Mycobacterium tuberculosis CNCTC My 331/88 after 14 days by micromethod; type: functional; settings: CNCTC My 331/88, 336 h
[9] = tested on: Mycobacterium tuberculosis; test: Antimycobacterial activity against Mycobacterium tuberculosis CNCTC My 331/88 after 21 days by micromethod; type: functional; settings: CNCTC My 331/88, 504 h
Mycobacterium avium [10] = test: Antimycobacterial activity against Mycobacterium avium CNCTC My 330/88 after 14 days by micromethod; type: functional; settings: CNCTC My 330/88, 336 h
Mycobacterium avium [11] = test: Antimycobacterial activity against Mycobacterium avium CNCTC My 330/88 after 21 days by micromethod; type: functional; settings: CNCTC My 330/88, 504 h
Mycobacterium kansasii [12] = test: Antimycobacterial activity against Mycobacterium kansasii CNCTC My 235/80 after 7 days by micromethod; type: functional; settings: CNCTC My 235/80, 168 h
Mycobacterium kansasii [13] = test: Antimycobacterial activity against Mycobacterium kansasii CNCTC My 235/80 after 14 days by micromethod; type: functional; settings: CNCTC My 235/80, 336 h
Mycobacterium kansasii [14] = test: Antimycobacterial activity against Mycobacterium kansasii CNCTC My 235/80 after 21 days by micromethod; type: functional; settings: CNCTC My 235/80, 504 h
Mycobacterium kansasii [15] = test: Antimycobacterial activity against Mycobacterium kansasii 6509/96 after 7 days by micromethod; type: functional; settings: 6509/96, 168 h
Mycobacterium kansasii [16] = test: Antimycobacterial activity against Mycobacterium kansasii 6509/96 after 14 days by micromethod; type: functional; settings: 6509/96, 336 h
Mycobacterium kansasii [17] = test: Antimycobacterial activity against Mycobacterium kansasii 6509/96 after 21 days by micromethod; type: functional; settings: 6509/96, 504 h
Escherichia coli = test: Antibacterial activity against Escherichia coli ATCC 8739 after 24 hrs by broth microdilution method; type: functional
Klebsiella pneumoniae [18] = test: Antibacterial activity against Klebsiella pneumoniae D 11750/08 after 24 hrs by broth microdilution method; type: functional
Klebsiella pneumoniae [19] = test: Antibacterial activity against extended spectrum beta-lactamase producing Klebsiella pneumoniae J 14368/08 after 24 hrs by broth microdilution method; type: functional
Pseudomonas aeruginosa = test: Antibacterial activity against Pseudomonas aeruginosa ATCC 9027 after 24 hrs by broth microdilution method; type: functional
Nakaseomyces glabratus = test: Antifungal activity against Candida glabrata 20/I after 24 hrs by broth microdilution method; type: functional

| Compound | viability at 48 h, 30 µM [2] [%] | viability at 48 h, 30 µM [3] [%] | viability at 48 h, 30 µM [4] [%] | viability at 48 h, 30 µM [5] [%] | IC50 (HeLa) [µM] | IC50 [6] [µM] | IC50 [7] [µM] | IC50 (HepG2) [µM] | MIC [8] [µM] | MIC [9] [µM] | MIC (Mycobacterium avium [10]) [µM] | MIC (Mycobacterium avium [11]) [µM] | MIC (Mycobacterium kansasii [12]) [µM] | MIC (Mycobacterium kansasii [13]) [µM] | MIC (Mycobacterium kansasii [14]) [µM] | MIC (Mycobacterium kansasii [15]) [µM] | MIC (Mycobacterium kansasii [16]) [µM] | MIC (Mycobacterium kansasii [17]) [µM] | also measured |
| --- | --- | --- | --- | --- | --- | --- | --- | --- | --- | --- | --- | --- | --- | --- | --- | --- | --- | --- | --- |
| OC(Cn1cncn1)(Cn1cncn1)c1ccc(F)cc1F [FLUCONAZOLE] |  |  |  |  |  |  |  |  |  |  |  |  |  |  |  |  |  |  | IC80 (Candida albicans): 0.82 µM; IC80 (Candida tropicalis): 1.6 µM; IC80 (Pichia kudriavzevii): 105 µM; IC80 (Trichosporon asahii): 210 µM; IC50 (Aspergillus fumigatus): > 500 µM; IC50 (Lichtheimia corymbifera): > 500 µM; IC50 [1]: 105 µM |
| O=[N+]([O-])c1ccc(CSc2nnnn2C2CCCCC2)c([N+](=O)[O-])c1 | 61 | 97 | 47 | 28 | > 30 | > 30 | 17 | 16 | 8 (≈ 2.92 µg/mL) | 16 (≈ 5.83 µg/mL) | 16 (≈ 5.83 µg/mL) | 32 (≈ 11.7 µg/mL) | 4 (≈ 1.46 µg/mL) | 8 (≈ 2.92 µg/mL) | 16 (≈ 5.83 µg/mL) | 16 (≈ 5.83 µg/mL) | 62 (≈ 22.6 µg/mL) | 62 (≈ 22.6 µg/mL) |  |
| O=[N+]([O-])c1cc(CS(=O)(=O)c2nnnn2C2CCCCC2)cc([N+](=O)[O-])c1 | 22 | 43 | 10 | 18 | 21 | 28 | < 7.5 | 9 | 2 (≈ 0.793 µg/mL) | 4 (≈ 1.59 µg/mL) | 32 (≈ 12.7 µg/mL) | 62 (≈ 24.6 µg/mL) | 8 (≈ 3.17 µg/mL) | 16 (≈ 6.34 µg/mL) | 16 (≈ 6.34 µg/mL) | 8 (≈ 3.17 µg/mL) | 16 (≈ 6.34 µg/mL) | 16 (≈ 6.34 µg/mL) |  |
| GENTAMICIN |  |  |  |  |  |  |  |  |  |  |  |  |  |  |  |  |  |  | IC95 (Escherichia coli): 0.26 µM; IC95 (Klebsiella pneumoniae [18]): 0.26 µM; IC95 (Klebsiella pneumoniae [19]): 0.26 µM; IC95 (Pseudomonas aeruginosa): 1 µM |
| C[C@@H]1[C@H](O)[C@@H](C)/C=C/C=C/C=C/C=C/C=C/C=C/C=C/[C@H](O[C@@H]2O[C@H](C)[C@@H](O)[C@H](N)[C@@H]2O)C[C@@H]2O[C@](O)(C[C@@H](O)C[C@@H](O)[C@H](O)CC[C@@H](O)C[C@@H](O)CC(=O)O[C@H]1C)C[C@H](O)[C@H]2C(=O)O [AMPHOTERICIN B] |  |  |  |  |  |  |  |  |  |  |  |  |  |  |  |  |  |  | IC80 (Candida albicans): 0.54 µM; IC80 (Candida tropicalis): 0.54 µM; IC80 (Pichia kudriavzevii): 1 µM; IC80 (Nakaseomyces glabratus): 0.54 µM; IC80 (Trichosporon asahii): 0.27 µM; IC50 (Aspergillus fumigatus): 0.54 µM; IC50 (Lichtheimia corymbifera): 1 µM; IC50 [1]: 0.54 µM |
| COc1ccc(-n2nnnc2SCc2cc([N+](=O)[O-])cc([N+](=O)[O-])c2)cc1 | 39 | 86 | 90 | 123 |  | > 30 | > 30 | > 30 | 2 (≈ 0.777 µg/mL) | 4 (≈ 1.55 µg/mL) | 16 (≈ 6.21 µg/mL) | 32 (≈ 12.4 µg/mL) | 1 (≈ 0.388 µg/mL) | 4 (≈ 1.55 µg/mL) | 4 (≈ 1.55 µg/mL) | 1 (≈ 0.388 µg/mL) | 1 (≈ 0.388 µg/mL) | 2 (≈ 0.777 µg/mL) |  |
| O=[N+]([O-])c1cc(COc2nnnn2-c2ccc(Cl)c(Cl)c2)cc([N+](=O)[O-])c1 | 69 | 111 | 27 | 22 | > 30 | > 30 | 22 | 25 | 4 (≈ 1.64 µg/mL) | 4 (≈ 1.64 µg/mL) | 32 (≈ 13.2 µg/mL) | 62 (≈ 25.5 µg/mL) | 4 (≈ 1.64 µg/mL) | 16 (≈ 6.58 µg/mL) | 32 (≈ 13.2 µg/mL) | 4 (≈ 1.64 µg/mL) | 16 (≈ 6.58 µg/mL) | 32 (≈ 13.2 µg/mL) |  |
| O=[N+]([O-])c1cc(C[S+]([O-])c2nnnn2C2CCCCC2)cc([N+](=O)[O-])c1 (stereo unspecified) | 62 | 84 | 42 | 52 | > 30 | > 30 | > 30 | 23 | 8 (≈ 3.04 µg/mL) | 16 (≈ 6.09 µg/mL) | 125 (≈ 47.5 µg/mL) | 125 (≈ 47.5 µg/mL) | 4 (≈ 1.52 µg/mL) | 16 (≈ 6.09 µg/mL) | 62 (≈ 23.6 µg/mL) | 4 (≈ 1.52 µg/mL) | 16 (≈ 6.09 µg/mL) | 32 (≈ 12.2 µg/mL) |  |
| COc1ccc(-n2nnnc2[Se]Cc2cc([N+](=O)[O-])cc([N+](=O)[O-])c2)cc1 | 78 | 72 | 17 | 9 | > 30 | > 30 | < 7.5 | 19 | 1 (≈ 0.435 µg/mL) | 1 (≈ 0.435 µg/mL) | 32 (≈ 13.9 µg/mL) | 32 (≈ 13.9 µg/mL) | 1 (≈ 0.435 µg/mL) | 2 (≈ 0.871 µg/mL) | 2 (≈ 0.871 µg/mL) | 2 (≈ 0.871 µg/mL) | 4 (≈ 1.74 µg/mL) | 8 (≈ 3.48 µg/mL) |  |
| CSCc1cc([N+](=O)[O-])cc([N+](=O)[O-])c1 |  |  |  |  |  |  |  |  | 62 (≈ 14.2 µg/mL) | 125 (≈ 28.5 µg/mL) | 250 (≈ 57.1 µg/mL) | 250 (≈ 57.1 µg/mL) | 62 (≈ 14.2 µg/mL) | 125 (≈ 28.5 µg/mL) | 250 (≈ 57.1 µg/mL) | 125 (≈ 28.5 µg/mL) | 250 (≈ 57.1 µg/mL) | 500 (≈ 114 µg/mL) |  |
| CCCCCCn1nnnc1[Se]Cc1cc([N+](=O)[O-])cc([N+](=O)[O-])c1 |  |  |  |  |  |  |  |  | 1 (≈ 0.413 µg/mL) | 1 (≈ 0.413 µg/mL) | 16 (≈ 6.61 µg/mL) | 32 (≈ 13.2 µg/mL) | 1 (≈ 0.413 µg/mL) | 2 (≈ 0.827 µg/mL) | 2 (≈ 0.827 µg/mL) | 2 (≈ 0.827 µg/mL) | 4 (≈ 1.65 µg/mL) | 4 (≈ 1.65 µg/mL) |  |
| COc1ccc(-n2nnnc2SCc2cc(N)cc([N+](=O)[O-])c2)cc1 |  |  |  |  |  |  |  |  | 250 (≈ 89.6 µg/mL) | 250 (≈ 89.6 µg/mL) | 250 (≈ 89.6 µg/mL) | 250 (≈ 89.6 µg/mL) | 250 (≈ 89.6 µg/mL) | 250 (≈ 89.6 µg/mL) | 250 (≈ 89.6 µg/mL) | 250 (≈ 89.6 µg/mL) | 250 (≈ 89.6 µg/mL) | 250 (≈ 89.6 µg/mL) |  |

Reference: ChEMBL document CHEMBL3297661, “1-Substituted-5-[(3,5-dinitrobenzyl)sulfanyl]-1H-tetrazoles and their isosteric analogs: A new class of selective antitubercular agents active against drug-susceptible and multidrug-resistant mycobacteria” (Eur J Med Chem, 2014)
